Test results: ChEMBL document CHEMBL1201862, “PubChem BioAssay data set” (2004)
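1) Cells in 96-well plates. 2) Compound, 48 h, 5 concentrations. 3) Linear interpolation between surrounding doses. 4) Unreached endpoint = highest concentration. GI50 = concentration required for 50% inhibition of growth.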 Activity calls are given as the source filed them. Rule as the data show it: active = GI50 up to about 1.1 µM and inactive = higher.

Columns and labels:
Assay in all cases: NCI-60 cell line screen, 48 h
OVCAR-5 = tested on: OVCAR-5
M14 = tested on: M14
SNB-19 = tested on: SNB-19
A549 = tested on: A549
OVCAR-8 = tested on: OVCAR-8
HT-29 = tested on: HT-29
U-251 = tested on: U-251
MDA-N = tested on: MDA-N
HOP-62 = tested on: HOP-62
UACC-257 = tested on: UACC-257
RXF 393 = tested on: RXF 393
EKVX = tested on: EKVX
786-0 = tested on: 786-0
DU-145 = tested on: DU-145
SF-295 = tested on: SF-295
Hs-578T = tested on: Hs-578T
NCI/ADR-RES = tested on: NCI/ADR-RES
SN12C = tested on: SN12C
SK-MEL-5 = tested on: SK-MEL-5
SK-MEL-2 = tested on: SK-MEL-2

Measured: GI50

Nc1nc(Cl)nc2c1ncn2C1CCC(COP(=O)(O)OP(=O)(O)OP(=O)(O)O)O1 (configuration not stated)
inactive: OVCAR-5 22.8 µM | M14 16.8 µM | SNB-19 > 100 µM | A549 32.7 µM | OVCAR-8 21.4 µM | HT-29 32 µM | U-251 37.5 µM | MDA-N 38 µM | HOP-62 19.2 µM | UACC-257 41.6 µM | RXF 393 24.5 µM | EKVX 40.1 µM | 786-0 37.3 µM | DU-145 23.3 µM | SF-295 17.9 µM | Hs-578T 29.7 µM | NCI/ADR-RES 21.8 µM | SN12C 38.8 µM

Cc1cnc2sn(-c3ccc(Oc4ccccc4)cc3)c(=O)c2c1
inactive: OVCAR-5 18.4 µM | M14 7.43 µM | SNB-19 19.7 µM | A549 16.8 µM | OVCAR-8 28.8 µM | HT-29 18.2 µM | U-251 17 µM | MDA-N 16.6 µM | HOP-62 12.9 µM | UACC-257 11.9 µM | EKVX 13.4 µM | 786-0 10.7 µM | DU-145 14.1 µM | SK-MEL-5 9.59 µM | SF-295 15.5 µM | Hs-578T 21.1 µM | SK-MEL-2 28.3 µM | NCI/ADR-RES 21.7 µM | SN12C 17.9 µM

CC1=N[C@@](C)(C2CC3C=CC2C3=O)COC1=O (some centres not stated)
inactive: OVCAR-5 > 100 µM | M14 > 100 µM | SNB-19 > 100 µM | A549 > 100 µM | OVCAR-8 > 100 µM | HT-29 > 100 µM | U-251 > 100 µM | MDA-N > 100 µM | HOP-62 > 100 µM | UACC-257 > 100 µM | RXF 393 > 100 µM | EKVX > 100 µM | 786-0 > 100 µM | DU-145 > 100 µM | SK-MEL-5 > 100 µM | SF-295 > 100 µM | Hs-578T > 100 µM | SN12C > 100 µM

COC(=O)[C@@H]1[C@H](O)[C@H](C)[C@H](O)[C@H](C)/C=C\C=C(\C)C(=O)Nc2c(C)c(OC(C)=O)c3c(c2O)C(=O)C(C)=C2OCOC(=C23)/C(C)=C/[C@@H](O)[C@H](O)[C@@H](C)[C@H]1OC(C)=O
inactive: OVCAR-5 > 100 µM | M14 38.1 µM | SNB-19 21.5 µM | OVCAR-8 43.8 µM | HT-29 31.3 µM | U-251 > 100 µM | MDA-N 22.2 µM | HOP-62 > 100 µM | UACC-257 28.3 µM | RXF 393 > 100 µM | EKVX > 100 µM | 786-0 > 100 µM | DU-145 > 100 µM | SK-MEL-5 57.4 µM | SF-295 > 100 µM | Hs-578T > 100 µM | SN12C 36.8 µM
